Laboratory results as given in the supplement of paper PMC13380429.

How the values were obtained:
Settings in all cases: 72 h
Caco-2 [1] = assay: cell viability relative to DMSO; higher = less toxic
Calu-3 [2] = assay: as above
HepG2 [3] = assay: as above
U2OS [4] = assay: as above
Vero E6 [5] = assay: as above
Caco-2 [6] = assay: relative viability EC50 (midpoint between 100% and the lowest measured viability); higher = less toxic
Calu-3 [7] = assay: as above
HepG2 [8] = assay: as above
U2OS [9] = assay: as above
Vero E6 [10] = assay: as above
Caco-2 [11] = assay: drug sensitivity score (DSS) for viability; higher = more toxic; extreme values may be limits of the assay
Calu-3 [12] = assay: as above
HepG2 [13] = assay: as above
U2OS [14] = assay: as above
Vero E6 [15] = assay: as above

SMILES	cell viability (Caco-2 [1]; 1 nM) [%]	cell viability (Caco-2 [1]; 10 nM) [%]	cell viability (Caco-2 [1]; 100 nM) [%]	cell viability (Caco-2 [1]; 1000 nM) [%]	cell viability (Caco-2 [1]; 10000 nM) [%]	cell viability (Calu-3 [2]; 1 nM) [%]	cell viability (Calu-3 [2]; 10 nM) [%]	cell viability (Calu-3 [2]; 100 nM) [%]	cell viability (Calu-3 [2]; 1000 nM) [%]	cell viability (Calu-3 [2]; 10000 nM) [%]	cell viability (HepG2 [3]; 1 nM) [%]	cell viability (HepG2 [3]; 10 nM) [%]	cell viability (HepG2 [3]; 100 nM) [%]	cell viability (HepG2 [3]; 1000 nM) [%]	cell viability (HepG2 [3]; 10000 nM) [%]	cell viability (U2OS [4]; 1 nM) [%]	cell viability (U2OS [4]; 10 nM) [%]	cell viability (U2OS [4]; 100 nM) [%]	cell viability (U2OS [4]; 1000 nM) [%]	cell viability (U2OS [4]; 10000 nM) [%]	cell viability (Vero E6 [5]; 1 nM) [%]	cell viability (Vero E6 [5]; 10 nM) [%]	cell viability (Vero E6 [5]; 100 nM) [%]	cell viability (Vero E6 [5]; 1000 nM) [%]	cell viability (Vero E6 [5]; 10000 nM) [%]	relative viability EC50 (Caco-2 [6]) [µM]	relative viability EC50 (Calu-3 [7]) [µM]	relative viability EC50 (HepG2 [8]) [µM]	relative viability EC50 (U2OS [9]) [µM]	relative viability EC50 (Vero E6 [10]) [µM]	drug sensitivity score (Caco-2 [11])	drug sensitivity score (Calu-3 [12])	drug sensitivity score (HepG2 [13])	drug sensitivity score (U2OS [14])	drug sensitivity score (Vero E6 [15])
COc1ccccc1NC(=O)OCC1CCN(C(=O)OC(C)(C)C)CC1	89.2	96.2	101	97.9	97.9	108	102	94.5	109	108	111	108	100	94.5	104	96.8	99	94.4	99.1	94.7	97.4	102	99.8	99.2	95.2	> 10	> 10	> 10	> 10	> 10	0	0	0	0	0
O=S(=O)(Cc1ccccc1)Nc1ccc(-c2ccc3c(cnn3-c3ccc(F)cc3)c2)c(C(F)(F)F)c1 [GSK9027]	90.8	98.6	99.7	97.7	85.5	103	105	97.6	92.2	97.1	96	94.4	95.3	104	86.3	94.7	93.7	100	95.9	93.7	96	94.2	91.1	95.2	110	> 10	> 10	> 10	> 10	> 10	0.4	0	0.1	0	0
Cc1c(CC(C)(C)C(=O)O)n(Cc2ccc(Cl)cc2)c2ccc(F)cc12	91.9	106	98.5	97.6	99	104	102	96.1	95.9	88	97.2	109	93.7	112	110	98.7	99.4	103	96.4	99.7	98.3	97.5	95.2	101	108	> 10	> 10	> 10	> 10	> 10	0	0	0	0	0
C[C@@](Cc1ccc(O)c(O)c1)(NN)C(=O)O [carbidopa]	98.1	94.4	95.1	110	108	100	103	89.5	114	99.9	107	113	101	98.5	95.8	92.9	99.9	92.8	100	102	92.6	87.6	91.4	90.4	106	> 10	> 10	> 10	> 10	> 10	0	0	0	0	0
